US20070224194A1, “Methods for Inhibiting Angiogenesis and/or Lymphangiogenesis” (LUDWIG INSTITUTE FOR CANCER RESEARCH, priority 2004, published 2007)
The star is where a group is joined. Decanoyl = CCCCCCCCCC(=O)*; CH2Cl = ClC*

Key:
Furin = Furin (Homo sapiens, UniProt P09958); details: cited from earlier work
[1] = tested on: proteolytic processing of VEGF-DΔN; test: Processing of VEGF-DΔN by 293EBNA cells (cleavage of C-terminal propeptide from VHD); format: cell-based, human; details: for band representing mature VHD from VEGF-DΔN: 1, 10, 50, 100 μM, 18 hours
Source text: An expression plasmid encoding a truncated derivative of human VEGF-D consisting of the N-terminal propeptide and the VHD tagged at the carboxyl terminus with the FLAG epitope (referred to as VEGF-DΔC) (FIG. 3, top panel) has been previously described (Stacker et al, J. Biol. Chem. 274 32127-32136, 1999). The VEGF-DΔC protein construct facilitates study of cleavage of the N-terminal propeptide from the VHD. The conditioned media of 293EBNA cells stably transfected with the VEGF-DΔC expression plasmid contain a mixture of VEGF-D proteins, including unprocessed VEGF-DΔC, and the proteolytically processed VHD. A second cell line was generated by stable transfection of 293EBNA cells with an expression construct encoding VEGF-DΔN, a truncated derivative of human VEGF-D consisting of the VHD tagged at the amino terminus with the FLAG epitope and C-terminal propeptide (FIG. 3, top panel). This protein construct facilitates study of cleavage of the C-terminal propeptide from the VHD. The conditioned media of 293EBNA cells expressing VEGF-DΔN contain a mixture of VEGF-D proteins, consisting of unprocessed VEGF-DΔN, and the proteolytically processed VHD. The VEGF-DΔN expression plasmid was constructed by replacing the 2-kb EcoRV fragment of the pAPEX-3 construct for full-length VEGF-D with the 2-kb EcoRV fragment of the pAPEX-3 construct for VEGF-DΔNΔC-FLAG (Stacker et al, J. Biol. Chem. 274 32127-32136, 1999).
The 293EBNA cell lines expressing VEGF-D-FULL-FLAG, VEGF-DΔC or VEGF-DΔN were seeded into 24-well plates (8×10^4 cells/well), in medium supplemented with Dec-RVKR-CMK dissolved in methanol, to a final concentration of 0, 1, 10, 50 or 100 μM. After 18 hours incubation (37° C., 10% CO2 in an humidified incubator), conditioned cell culture media were removed and clarified by centrifugation (5 minutes, 250×g, 4° C.). […] The precipitated VEGF-D species were then analysed by reducing SDS-PAGE and Western blotting using a biotinylated antibody against the VHD of human VEGF-D (R&D Systems), and Streptavidin-horse radish peroxidase conjugate (Zymed).

[2] = tested on: VEGF-D propeptide processing; test: VEGF-D processing by Balbc/3T3 cells that naturally produce VEGF-D; format: cell-based; details: 100 μM
Source text: Finally, the effect of dec-RVKR-CMK on VEGF-D processing by Balbc/3T3 cells that naturally produce this growth factor (i.e., in cells that had not been transfected so as to express VEGF-D) was examined.

[3] = tested on: proteolytic processing of VEGF-C; test: Processing of VEGF-C secreted by 293EBNA cells expressing VEGF-C-FULL-N-Myc (immunoprecipitation/Western blot); format: cell-based, human; details: 0, 1, 10, 50 or 100 μM, 18 hours, Western blot
Procedure: 293EBNA cells stably transfected with an expression construct encoding VEGF-C-FULL-N-Myc (full-length VEGF-C tagged with Myc at the N-terminus) or VEGF-D-FULL-N-FLAG (full-length VEGF-D tagged with FLAG at the N-terminus) secrete fully and partially processed forms of VEGF-C or VEGF-D into the culture medium (Joukov et al., EMBO J. 16:3898-3911 1997; Stacker et al., J. Biol. Chem. 274: 32127-32136, 1999). These cells were grown overnight in 24-well plates, seeded with 8×10^4 cells per well. At the time when cultures were initiated in these plates, growth medium was supplemented with Dec-RVKR-CMK (Calbiochem) (dissolved in methanol) to a final concentration of 0, 1, 10, 50 or 100 μM. Solvent control cultures were also established, in which the medium was supplemented with methanol at concentrations equal to those present in the cultures treated with inhibitor. […]
VEGF-C species were immunoprecipitated from conditioned medium by addition of anti-VEGF-C antibody that binds the VHD and C-terminal propeptide (R&D Systems). […] The precipitated VEGF-C and VEGF-D species were then analysed by Western blot using biotinylated antibodies against the VHD and C terminus of VEGF-C, or the VHD of VEGF-D (R&D Systems) and streptavidin-horse radish peroxidase conjugate (Zymed) (FIGS. 1 and 2). […]

Sequence of Furin (P09958 108-794, species assumed): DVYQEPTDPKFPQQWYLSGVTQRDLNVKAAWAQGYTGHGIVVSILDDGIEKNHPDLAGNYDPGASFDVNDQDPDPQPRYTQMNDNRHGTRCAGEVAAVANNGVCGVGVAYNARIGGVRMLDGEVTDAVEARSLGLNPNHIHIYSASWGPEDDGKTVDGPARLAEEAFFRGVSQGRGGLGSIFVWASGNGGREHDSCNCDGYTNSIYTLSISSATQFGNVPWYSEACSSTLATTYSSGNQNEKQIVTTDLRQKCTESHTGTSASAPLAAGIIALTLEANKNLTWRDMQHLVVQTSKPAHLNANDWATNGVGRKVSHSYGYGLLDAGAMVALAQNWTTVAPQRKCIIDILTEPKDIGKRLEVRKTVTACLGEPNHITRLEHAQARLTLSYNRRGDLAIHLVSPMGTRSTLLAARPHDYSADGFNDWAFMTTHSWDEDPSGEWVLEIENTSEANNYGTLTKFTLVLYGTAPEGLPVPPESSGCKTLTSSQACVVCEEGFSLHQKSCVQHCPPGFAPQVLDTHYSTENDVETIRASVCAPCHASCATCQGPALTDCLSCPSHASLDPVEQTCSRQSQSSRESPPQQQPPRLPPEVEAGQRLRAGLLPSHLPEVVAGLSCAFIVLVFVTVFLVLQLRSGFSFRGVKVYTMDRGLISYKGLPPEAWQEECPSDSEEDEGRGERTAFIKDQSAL

For “Decanoyl-Arg-Val-Lys-Arg-chloromethylketone (Decanoyl-RVKR-CH2Cl) [Dec-RVKR-CMK]”, the inhibition of furin (Furin) is given as “potently inhibited”, the “proteolytic processing of VEGF-DΔN” value ([1]; 100 μM) is given as “completely blocked” and the “band representing mature VHD from VEGF-DΔN” value [1] is given as “reduced in abundance in a dose dependent manner”. The “band representing mature VHD from VEGF-DΔN” value ([1]; listed as dec-RVKR-CMK) was “blocked each of these processing events in a dose-dependent fashion”, the VEGF-D propeptide processing [2] was “almost completely blocked” and the “abundance of fully and partially processed forms of VEGF-C” value [3] was “dramatically reduced in abundance in a dose-dependent manner”.
